The values that follow come from patent publication US8937065B2, “Compositions and methods for modulating a kinase” (Clevexel Pharma, priority 2011, dated 2015).

Molecules are shown by their SMILES.

The test system of data set [1] is JAK2 pathway, TF-1 cells. In words: JAK2/STAT5-irf1-bla TF1 screen. The conditions noted are these: Homo sapiens, read-out: IC50 Cell-based selectivity: JAK2 pathway TF-1 cells. On the procedure:
Mechanism-based inhibition assays using compound 7A (Table 1) were performed using GeneBLAzer® Technology (Invitrogen Corporation), according to manufacturer specifications. Briefly, GeneBLAzer® Technology uses a mammalian-optimized Beta-lactamase reporter gene (bla) combined with a FRET-enabled substrate to provide reliable and sensitive detection in intact cells. Cells were loaded with an engineered fluorescent substrate containing two fluorophores, coumarin and fluorescein. Without bla expression, the substrate molecule remains intact. In this state, excitation of the coumarin results in fluorescence resonance energy transfer to the fluorescein moiety and emission of green light. But when bla is expressed, the substrate is cleaved, the fluorophores are separated, and energy transfer is disrupted. Excitation of the coumarin in the presence of Beta-lactamase activity results in a blue fluorescence signal. […]
General Activator Assay Protocol • 1. […] The assay, plate was read on a fluorescence plate reader (Tecan Safire^2) and the data is analyzed.
irf1-bla TF1 cells were thawed and resuspended in Assay Media (OPTI-MEM, 0.5% dialyzed FBS, 0.1 mM NEAA, 1 mM Sodium Pyruvate, 100 U/mL/100 μg/mL Pen/Strep) to a concentration of 1,562,500 cells/mL. […] The plate is read on a fluorescence plate reader.

Data set [2] in a line: hLM T½ (stability). The data set is classed as in vitro ADME. Conditions: human, liver microsomes.

On to `O=C(CN1CCOCC1)Nc1cccc(-c2nc(-c3c[nH]c(C(=O)N4CCCC4)c3)cs2)c1` [7A, 2-morpholino-N-(3-(4-(5-(pyrrolidine-1-carbonyl)-1H-pyrrol-3-yl)thiazol-2-yl)phenyl)acetamide], for which the IC50 in data set [1] was 49.5 µM. For the same molecule, the half-life in data set [2] came to 36 min.
